Data taken from patent US20150190369A1, “QUERCETIN-3-GLUCOSIDE AND USES THEREOF” (priority 2012, published 2015).
“Also recorded” adds a separate entry of the source.

Assays:
HNF-1α = test: Immunoblotting for HNF-1α in cells exposed to Q3G; type: cell-based; conditions: cells incubated 24 h with Q3G
Experimental: FIG. 3 is a graph illustrating hepatocyte nuclear factor la (HNF-1α) expression in cells on exposure to Q3G. Cells were incubated for 24 h in medium containing the indicated concentrations of Q3G. Cells lysates were analyzed by semi-quantitative immunoblotting for the levels of HNF-1α.
Cell lysates were fractionated by SDS-PAGE and electrophoretically transferred onto a polyvinylidene fluoride membrane. The membrane was incubated with a goat antihuman LDLR, rabbit anti-PCSK9, or rabbit anti-SREBP-2 polyclonal antibody at 1:1000, 1:1500, and 1:200 dilutions, respectively, and then with a HRP-conjugated heterospecific secondary antibody against the primary Igs at a 1:2000 dilution. It was probed for HRP reaction using the Western Lightning Chemiluminescence Reagent Plus a chemiluminescence-based revelation kit. The signal was captured on X-ray film and immunoreactive bands analyzed by densitometry on a Syngene's ChemiGenius^2XE Bio Imaging System (Cambridge, Mass.) within the dynamic range of the instrument. The membrane was stripped and reprobed with the anti-β-actin monoclonal primary antibody at 1:20,000 dilution and HRP-conjugated rabbit anti-mouse IgG secondary antibody at a 1:5000 dilution. The densitometric values of β-actin bands were using for normalization of experimental samples.

ABCA1 mRNA = test: qRT-PCR for ABCA1 mRNA in MIN6 β-cells; type: cell-based, mouse; conditions: MIN6, 24 h
Experimental: (§1) Mouse insulinoma MIN6 cells were cultured in a 5% CO2-95% air atmosphere at 37° C. in DMEM medium containing 10% heat-inactivated fetal bovine serum, 1 mM Na-pyruvate, 2 mM L-glutamine, 25 mM D-glucose, and 28 μM β-mercaptoethanol. Q3G at a specific final concentration was supplemented to the culture medium and incubation was conducted for a selected length of time. Media were collected, spun at 600 g to sediment suspended cells, supplemented with 0.5 volumes of 3×RIPA-PIC (1×: 50 mM Tris-HCl, pH 8, 150 mM NaCl, 1% NP-40, 0.5% Na-deoxycholate and 0.1% SDS and PIC). Cells were lysed in 1×RIPA-PIC for immuno-blotting, or in RNA extraction buffer for qRT-PCR.
For the mouse studies, the levels of specific mRNAs were quantified in a PCR-based fluorogenic assay using the Taqman technology (Holland et al., 1991). Briefly, total RNA was extracted using the RNeasy extraction kit and reverse-transcribed into cDNA using random hexameric primers and the Superscript II RNase H-Reverse Transcriptase. […] Standard curves were established using varying amounts of pre-quantified amplicons of each transcript. […]
MIN6 β-cells were incubated for 24 h in the presence of different concentrations of Q3G. Total RNA was extracted and analyzed by qRT-PCR for the levels of mRNA for PCSK9, LDLR, ABCA1 and ABCG1.

ABCA1 = test: Immunoblotting for ABCA1 in MIN6 β-cells; type: cell-based, mouse; conditions: MIN6, Q3G-treated
Experimental: The corresponding photographs of the immunoblotting results are also shown. MIN6 cells were incubated for 24 h in the presence of 16 μM Q3G. Cell lysates were analyzed by semi-quantitative immunoblotting using different antibodies successively.
as §1
Cell lysates were fractionated by SDS-PAGE and electrophoretically transferred onto a polyvinylidene fluoride membrane. […] The signal was captured on X-ray film and immunoreactive bands analyzed by densitometry on a Syngene's ChemiGenius^2XE Bio Imaging System (Cambridge, Mass.) within the dynamic range of the instrument. […]

MIN6 β-cells = test: GSIS assay (glucose-stimulated insulin secretion, insulin ELISA); type: cell-based, mouse; conditions: MIN6, stimulation with 18 mM glucose, 30 min
Experimental: The assays for PCSK9 and insulin were conducted as prescribed by kit manufacturers, using a Thermo Scientific plate reader. For example, PCSK9 levels in conditioned media were measured using the human PCSK9 ELISA kit from Circulex, as specified the manufacturer. The assay was a sandwich immunoassay using two antibodies (A and B) recognizing different PCSK9 epitopes. Briefly, aliquot of diluted media were overlaid on wells coated with anti-PCSK9 antibody A. After 1-h incubation, the wells were washed, overlaid with a solution of HRP-conjugated anti-PCSK9 antibody B, and incubated for 1 h. They were washed again, and overlaid with a solution of tetra-methylbenzidine as a chromogenic substrate for HRP. After 15 min, the reaction was stopped with […] and the absorbance of the reaction mixtures measured by spectrophotometry at 450 nm. All the steps were performed at room temperature. Standards consisted of recombinant human PCSK9.
Cells were seeded and grown to 80% confluence. Prior to GSIS assay, fresh medium containing 3 mM Glucose and 10% FBS medium (low-glucose medium or LGM) without or with Q3G was substituted and incubation resumed for 6 h to adapt the cells to low glucose. Fresh LGM without or with Q3G was substituted and supplemented or not with glucose to the final concentration of 18 mM. […]

Structure (SMILES): O=c1c(O[C@@H]2O[C@H](CO)[C@@H](O)[C@H](O)[C@H]2O)c(-c2ccc(O)c(O)c2)oc2cc(O)cc(O)c12 [Q3G, quercetin-3-O-β-D-glucoside]
- level of HNF-1α (HNF-1α): does not change
- effect on ABCA1 mRNA levels (ABCA1 mRNA; Q3G 8 mM and above): reducing
- increase of ABCA1 mRNA levels (ABCA1 mRNA; Q3G up to 4 mM): about 50%
- relative amount of ABCA1 protein compared with mRNA (ABCA1): in concordance with the relative amounts of mRNA
- glucose-stimulated insulin secretion, treated versus untreated cells (MIN6 β-cells): comparable; also recorded: without affecting
